Source: ChEMBL document CHEMBL1128141, “Chemical modification of ring c of himbacine: Discovery of a pharmacophoric element for M2-selectivity” (Bioorg Med Chem Lett, 1995)
pKd: −log10 of the molar value.

Tests used:
[1] = target: T1, Muscarinic acetylcholine receptor M1 (Homo sapiens, UniProt P11229); assay: Binding affinity against M1 receptor expressed in CHO-K1 cells transfected with human muscarinic receptor sequence using radioligand [3H]quinuclidinyl benzilate ([3H]QNB); assay type: cell-based
T1 sequence (P11229 whole entry): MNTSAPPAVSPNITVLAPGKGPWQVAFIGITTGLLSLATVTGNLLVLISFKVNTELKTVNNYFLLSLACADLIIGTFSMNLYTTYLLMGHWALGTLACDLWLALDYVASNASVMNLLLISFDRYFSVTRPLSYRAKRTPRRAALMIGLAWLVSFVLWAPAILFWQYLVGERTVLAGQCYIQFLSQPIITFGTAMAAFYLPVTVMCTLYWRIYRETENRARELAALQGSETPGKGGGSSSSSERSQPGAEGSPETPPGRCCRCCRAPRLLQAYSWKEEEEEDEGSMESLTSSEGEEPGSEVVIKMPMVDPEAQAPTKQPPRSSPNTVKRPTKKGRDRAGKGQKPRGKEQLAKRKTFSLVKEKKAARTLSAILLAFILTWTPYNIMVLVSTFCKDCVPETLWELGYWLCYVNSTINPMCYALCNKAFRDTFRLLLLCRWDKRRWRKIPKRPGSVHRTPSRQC

[2] = target: T2, Muscarinic acetylcholine receptor M2 (Rattus norvegicus, UniProt P10980); assay: Binding affinity against M2 receptor in rat brainstem cells using radioligand [3H]quinuclidinyl benzilate ([3H]QNB); assay type: cell-based, Brain
T2 sequence (P10980 whole entry): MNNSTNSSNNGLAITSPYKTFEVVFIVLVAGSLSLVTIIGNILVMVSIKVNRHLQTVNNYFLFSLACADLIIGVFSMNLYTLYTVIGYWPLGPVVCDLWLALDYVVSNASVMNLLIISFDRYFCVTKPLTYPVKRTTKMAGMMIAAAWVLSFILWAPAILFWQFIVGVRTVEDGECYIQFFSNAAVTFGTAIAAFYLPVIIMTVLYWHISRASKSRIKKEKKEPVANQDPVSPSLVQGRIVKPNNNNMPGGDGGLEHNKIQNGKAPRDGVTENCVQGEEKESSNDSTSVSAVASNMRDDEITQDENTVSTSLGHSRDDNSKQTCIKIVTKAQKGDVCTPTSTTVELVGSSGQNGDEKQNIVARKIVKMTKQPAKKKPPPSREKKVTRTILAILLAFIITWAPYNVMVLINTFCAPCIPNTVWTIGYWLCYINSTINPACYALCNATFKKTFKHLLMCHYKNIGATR

[3] = target: Muscarinic acetylcholine receptors; M1 & M2 (Homo sapiens) (UniProt P11229+P08172); assay: Ratio of binding affinities towards M2 receptor to M1 receptor; assay type: protein assay

| SMILES | pKd [1] | pKd [2] | Selectivity [3] |
| --- | --- | --- | --- |
| C[C@@H]1O[C@H](OC(=O)C(C)(C)C)[C@H]2C[C@H]3CCCC[C@@H]3[C@@H](/C=C/[C@H]3CCC[C@H](C)N3C)[C@H]21 | 5.60 | 6.33 | 5.4 |
| C[C@H](O)[C@H]1[C@@H](CO)C[C@H]2CCCC[C@@H]2[C@H]1/C=C/[C@H]1CCC[C@H](C)N1C | 6.31 | 6.53 | 1.7 |
| C[C@@H]1OC(=O)[C@H]2C[C@H]3CCCC[C@@H]3[C@@H](/C=C/[C@H]3CCC[C@H](C)N3C)[C@@H]12 [HIMBACINE] | 6.83 | 8.00 | 14.8 |
| CC(=O)OC[C@H]1C[C@H]2CCCC[C@@H]2[C@@H](/C=C/[C@H]2CCC[C@H](C)N2C)[C@H]1[C@H](C)OC(C)=O | 6.22 | 6.60 | 2.4 |
| C[C@@H]1O[C@H](O)[C@H]2C[C@H]3CCCC[C@@H]3[C@@H](/C=C/[C@H]3CCC[C@H](C)N3C)[C@H]21 | 6.37 | 7.02 | 4.4 |
| C[C@@H]1OC[C@H]2C[C@H]3CCCC[C@@H]3[C@@H](/C=C/[C@H]3CCC[C@H](C)N3C)[C@H]21 | 6.78 | 6.45 | 0.5 |
| CC(=O)O[C@H]1O[C@@H](C)[C@@H]2[C@H](/C=C/[C@H]3CCC[C@H](C)N3C)[C@H]3CCCC[C@@H]3C[C@H]12 | 6.06 | 7.05 | 9.7 |
